Assay [1] deals with Heat shock protein HSP 90-alpha (Homo sapiens, UniProt P07900). Briefly: Luminescence-based dose response biochemical high throughput screening assay for inhibitors of the Heat Shock Protein 90 (HSP90). [Related pubchem assays: 1831 (Summary AID.), 1846 (Confirmation screen.), 1789 (Primary screen.)].
A short description of assay [2]: alpha-synuclein stem-loop luciferase translation blockers – H4 neuroglioma cells, luminescence, confirmation (AID 1988). It counts as functional, cell-based.
Assay [3] can be described thus: off-target signal loss in HeLa-CEM21 co-culture – HeLa F-luc CTL cells, cherry-picked, counter-screen for HIV-1 Env fusion inhibitor project, dose response (AID 652040).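 Also: potency for signal decrease marking cytotoxic or nonspecific inhibition.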 It counts as functional, cell-based.
Assay [4] is described as follows: HIV-1 AD8 envelope cell-cell fusion blockers – cherry-pick, dose response (AID 652062).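 Also: luciferase signal from cell-cell fusion driven by HIV-1 clade B AD8 Env; potency is for inhibitors of fusion seen as a drop in luminescence.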 It counts as functional, cell-based.
Another assay deals with Paired box protein Pax-8 (Homo sapiens, UniProt Q06710). Briefly: PAX8 transcriptional activity inhibition in RMG-I – RMG-I cells, luciferase, cherry-pick, dose response (AID 687027).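 Also: luciferase reporter driven by Pax8 target thyroperoxidase promoter measured by SteadyGlo luminescence.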 It is filed as functional, cell-based.
Chain of Paired box protein Pax-8 (Q06710 whole entry): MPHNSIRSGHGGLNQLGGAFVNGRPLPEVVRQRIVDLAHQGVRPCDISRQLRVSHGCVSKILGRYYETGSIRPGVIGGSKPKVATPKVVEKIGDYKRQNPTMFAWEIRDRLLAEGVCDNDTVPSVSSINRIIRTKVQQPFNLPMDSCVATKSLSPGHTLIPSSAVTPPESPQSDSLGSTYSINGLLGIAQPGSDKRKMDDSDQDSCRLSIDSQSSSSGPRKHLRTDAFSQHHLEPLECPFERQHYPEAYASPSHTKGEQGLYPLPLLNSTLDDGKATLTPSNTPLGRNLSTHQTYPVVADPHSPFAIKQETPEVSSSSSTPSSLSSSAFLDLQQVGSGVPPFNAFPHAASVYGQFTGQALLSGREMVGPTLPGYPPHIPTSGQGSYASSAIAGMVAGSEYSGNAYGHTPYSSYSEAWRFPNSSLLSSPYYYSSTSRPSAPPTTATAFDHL
A short description of assay [5]: blockers of bursicon-stimulated LGR2 cAMP reporter – cell-based, HEK293, CRE-luciferase reporter, cherry pick, set 2, dose response (AID 743343).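 Also: transfected cells were stimulated with diluted bursicon conditioned medium after compound addition.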 It is filed as functional.
Assay [6] is described as follows: blockers of HIV-1 ZM109 envelope-driven cell-cell fusion – HeLa effector, CEM target cells, luciferase, cherry-pick, dose response (AID 652058).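 Also: luciferase signal from HIV-1 Env mediated cell-cell fusion of effector and target cells.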 It is filed as functional, cell-based.
A short description of assay [7]: PAX5 cellular inhibition readout – cell-based, plate reader, dry powder samples, selectivity assay for PAX8 inhibitor project, dose response (AID 743047).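 Also: HEK293 cells carrying a Pax5 driven CD19 promoter luciferase reporter; potency of inhibitors that lower reporter luminescence.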 It is filed as functional.
A short description of assay [8]: blockers of HIV-1 envelope-mediated cell-cell fusion – cherry-pick, dose response (AID 652057). It counts as functional, cell-based.
Assay [9] is described as follows: inhibitors acting on PAX2 in cells – cell-based, plate reader, dry powder samples, selectivity assay for PAX8 inhibitor project, dose response (AID 743048).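 Also: HEK293 cells carrying a WT1 promoter luciferase reporter driven by expressed Pax2; potency is for inhibition of Pax2 driven reporter signal.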 It is filed as functional.
Assay [10] can be described thus: Luminescence Cell-Based Dose Response HTS to Identify Inhibitors of 5'UTR Stem-Loop Driven Prion Protein mRNA Translation in H4 Neuroglioblastoma Cells. [Related pubchem assays: 1827 (Project Summary), 1813 (Primary HTS)]. It is filed as functional.
Assay [11] in a line: luciferase reporter signal suppression in cells – H4 neuroglioma cells, luminescence, dose response (AID 1990). It is filed as functional, cell-based.
The nature of assay [12]: blockade of melanocortin 4 receptor signaling – cell-based, plate reader, cherry pick, counter-screen for LGR2 antagonist project, dose response (AID 743444).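 Also: transfected HEK 293 cells stimulated with alpha-MSH peptide; potency of inhibitors of the alpha-MSH evoked signal.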 It is filed as functional.
A short description of assay [13]: HEK-293T cell viability reduction – luminescence, B-cell screen hits, cytotoxicity control for BCR NF-kB inhibitor project, dose response (AID 489021).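 Also: HEK-293T cells carrying an NF-kB luciferase reporter; cells exposed to compound for about 14 hours before viability readout.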 It counts as functional, cell-based.
Assay [14] can be described thus: PAX8-dependent cell viability loss – plate reader, dry powder, dose response (AID 743049). It counts as functional, cell-based.
A short description of assay [15]: viability loss in Vero cells – cytotoxicity control for Vif-APOBEC3G degradation inhibitor project, dose response (AID 1117358). It counts as functional. As to conditions: Vero.
A short description of assay [16]: HIV-1 Vif–A3G interaction blockers – biochemical, TR-FRET, GST-Vif 1-94, biotin-A3G peptide, dose response retest, primary screen (AID 1117319).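 Also: TR-FRET signal of purified GST-Vif binding a biotinylated A3G peptide; inhibitors lower the FRET signal by blocking Vif and A3G binding.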 It counts as functional.
A short description of assay [17]: cytotoxicity toward HT-29 cells – cell-based, CellTiter-Glo luminescence, IC50, dose response (AID 1117330). It counts as functional.
Assay [18] can be described thus: cytotoxicity toward HCT116 cells – cell-based, CellTiter-Glo luminescence, IC50, dose response (AID 1117332). It counts as functional. To be noted: HCT-116.
A short description of assay [19]: SNU-C1 cell viability reduction, dose response, CellTiter-Glo luminescence (AID 1117323). It counts as functional, cell-based.
Assay [20] is described as follows: Reduced DLD-1 viability, concentration-response, CellTiter-Glo luminescence (AID 1117352). It is filed as functional.
A short description of assay [21]: cytotoxicity toward Colo320 cells – cell-based, CellTiter-Glo luminescence, IC50, dose response (AID 1117334). It is filed as functional. As to conditions: COLO 320.
Assay [22] is described as follows: RKO cell viability reduction, dose response, CellTiter-Glo luminescence (AID 1117322). It counts as functional.
The nature of assay [23]: CellTiter-Glo luminescence survival assay, SW480 colon tumor line, concentration-response curve, half-maximal inhibitory concentration (AID 1117338). It is filed as functional.
Assay [24] in a line: rise of 4N DNA cells, HeLa – IC50, dose response (AID 1117351). It is filed as functional, cell-based.
Assay [25] is described as follows: rise of 2N DNA cells, HeLa – IC50, dose response (AID 1117349). It counts as functional, cell-based.
In assay [26] the target is T1, Polyadenylate-binding protein 1 (Homo sapiens, UniProt P11940). Description: MLLE binding blockers, Cy5 peptide tracer – biochemical, fluorescence polarization, Cy5-PAM2 peptide, secondary, miRNA deadenylation inhibitor project, dose response (AID 602260). It counts as functional. To be noted: read-out: IC50_Mean.
T1 sequence (P11940 whole entry): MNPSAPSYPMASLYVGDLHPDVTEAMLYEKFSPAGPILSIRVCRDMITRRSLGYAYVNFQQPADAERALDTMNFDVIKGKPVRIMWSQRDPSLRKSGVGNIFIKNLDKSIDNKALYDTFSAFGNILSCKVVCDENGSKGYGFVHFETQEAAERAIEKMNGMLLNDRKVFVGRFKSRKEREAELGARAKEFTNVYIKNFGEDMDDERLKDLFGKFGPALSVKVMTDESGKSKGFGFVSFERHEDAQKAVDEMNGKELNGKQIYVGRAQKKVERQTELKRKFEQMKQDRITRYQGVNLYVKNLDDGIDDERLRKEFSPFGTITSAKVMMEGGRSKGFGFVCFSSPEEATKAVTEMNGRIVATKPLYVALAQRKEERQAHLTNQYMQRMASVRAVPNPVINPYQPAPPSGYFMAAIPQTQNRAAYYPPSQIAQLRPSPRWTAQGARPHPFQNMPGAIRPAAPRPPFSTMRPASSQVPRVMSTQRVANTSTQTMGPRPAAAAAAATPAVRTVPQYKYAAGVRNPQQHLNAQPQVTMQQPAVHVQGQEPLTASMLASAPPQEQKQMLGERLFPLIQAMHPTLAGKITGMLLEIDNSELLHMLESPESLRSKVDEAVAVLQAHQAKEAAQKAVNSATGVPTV
The target of assay [27] is T2, Long-chain-fatty-acid--AMP ligase FadD28 (Mycobacterium tuberculosis, UniProt P9WQ59).
T2 sequence (P9WQ59 whole entry): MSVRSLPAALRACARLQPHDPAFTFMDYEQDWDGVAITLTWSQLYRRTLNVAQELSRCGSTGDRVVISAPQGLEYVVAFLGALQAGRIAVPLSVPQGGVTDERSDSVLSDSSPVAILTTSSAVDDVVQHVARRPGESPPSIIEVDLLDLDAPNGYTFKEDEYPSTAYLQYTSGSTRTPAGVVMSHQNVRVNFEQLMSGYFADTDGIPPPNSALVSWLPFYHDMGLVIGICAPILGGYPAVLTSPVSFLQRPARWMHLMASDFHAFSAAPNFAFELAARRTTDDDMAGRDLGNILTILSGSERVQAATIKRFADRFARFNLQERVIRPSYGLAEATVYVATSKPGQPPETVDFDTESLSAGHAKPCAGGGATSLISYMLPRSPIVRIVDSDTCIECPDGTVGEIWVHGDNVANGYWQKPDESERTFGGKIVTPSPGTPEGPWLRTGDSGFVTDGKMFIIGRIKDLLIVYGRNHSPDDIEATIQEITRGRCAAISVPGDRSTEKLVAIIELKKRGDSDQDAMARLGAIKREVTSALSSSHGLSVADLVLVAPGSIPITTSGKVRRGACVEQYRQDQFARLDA
Description: Fluorescence polarization aasay to screen for inhibitors that compete for the binding of FadD28 to a bisubstrate Measured in Biochemical System Using Plate Reader - 2147-01_Inhibitor_Dose_CherryPick_Activity. It is filed as functional, Mycobacterium tuberculosis H37Rv.

Assay [28] deals with T3, Microphthalmia-associated transcription factor (Homo sapiens, UniProt O75030).
T3 sequence (O75030 whole entry): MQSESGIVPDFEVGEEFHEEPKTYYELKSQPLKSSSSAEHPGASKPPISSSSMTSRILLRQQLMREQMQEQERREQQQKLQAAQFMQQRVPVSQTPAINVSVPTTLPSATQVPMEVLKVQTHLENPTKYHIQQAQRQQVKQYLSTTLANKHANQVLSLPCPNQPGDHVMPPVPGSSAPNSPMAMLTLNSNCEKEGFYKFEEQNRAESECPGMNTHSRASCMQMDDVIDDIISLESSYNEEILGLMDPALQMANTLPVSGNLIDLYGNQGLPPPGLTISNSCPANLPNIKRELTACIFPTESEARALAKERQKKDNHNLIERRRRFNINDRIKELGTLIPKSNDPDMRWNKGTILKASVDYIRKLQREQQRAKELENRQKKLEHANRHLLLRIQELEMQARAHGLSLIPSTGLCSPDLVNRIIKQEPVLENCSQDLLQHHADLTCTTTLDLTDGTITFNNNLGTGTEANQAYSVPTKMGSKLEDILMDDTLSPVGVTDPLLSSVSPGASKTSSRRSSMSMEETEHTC
Description: reducers of TRPM1 reporter luminescence, concentration series – cell-based, SK-MEL-5, cherry-picked, set 3, MITF inhibitor project, dose response (AID 493073).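 Also: SK-MEL-5 melanoma cells with luciferase driven by the MITF target TRPM1 promoter.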 It counts as functional.

Assay [29] concerns the target T1, Polyadenylate-binding protein 1. Briefly: MLLE domain peptide-binding blockers, IC50 – biochemical, fluorescence polarization, FITC-PAM2 peptide, dose response (AID 602259). It is filed as functional. To be noted: read-out: IC50_Mean.
Assay [30] addresses T4, Histone-lysine N-methyltransferase NSD2 (Homo sapiens, UniProt O96028).
T4 sequence (O96028 whole entry): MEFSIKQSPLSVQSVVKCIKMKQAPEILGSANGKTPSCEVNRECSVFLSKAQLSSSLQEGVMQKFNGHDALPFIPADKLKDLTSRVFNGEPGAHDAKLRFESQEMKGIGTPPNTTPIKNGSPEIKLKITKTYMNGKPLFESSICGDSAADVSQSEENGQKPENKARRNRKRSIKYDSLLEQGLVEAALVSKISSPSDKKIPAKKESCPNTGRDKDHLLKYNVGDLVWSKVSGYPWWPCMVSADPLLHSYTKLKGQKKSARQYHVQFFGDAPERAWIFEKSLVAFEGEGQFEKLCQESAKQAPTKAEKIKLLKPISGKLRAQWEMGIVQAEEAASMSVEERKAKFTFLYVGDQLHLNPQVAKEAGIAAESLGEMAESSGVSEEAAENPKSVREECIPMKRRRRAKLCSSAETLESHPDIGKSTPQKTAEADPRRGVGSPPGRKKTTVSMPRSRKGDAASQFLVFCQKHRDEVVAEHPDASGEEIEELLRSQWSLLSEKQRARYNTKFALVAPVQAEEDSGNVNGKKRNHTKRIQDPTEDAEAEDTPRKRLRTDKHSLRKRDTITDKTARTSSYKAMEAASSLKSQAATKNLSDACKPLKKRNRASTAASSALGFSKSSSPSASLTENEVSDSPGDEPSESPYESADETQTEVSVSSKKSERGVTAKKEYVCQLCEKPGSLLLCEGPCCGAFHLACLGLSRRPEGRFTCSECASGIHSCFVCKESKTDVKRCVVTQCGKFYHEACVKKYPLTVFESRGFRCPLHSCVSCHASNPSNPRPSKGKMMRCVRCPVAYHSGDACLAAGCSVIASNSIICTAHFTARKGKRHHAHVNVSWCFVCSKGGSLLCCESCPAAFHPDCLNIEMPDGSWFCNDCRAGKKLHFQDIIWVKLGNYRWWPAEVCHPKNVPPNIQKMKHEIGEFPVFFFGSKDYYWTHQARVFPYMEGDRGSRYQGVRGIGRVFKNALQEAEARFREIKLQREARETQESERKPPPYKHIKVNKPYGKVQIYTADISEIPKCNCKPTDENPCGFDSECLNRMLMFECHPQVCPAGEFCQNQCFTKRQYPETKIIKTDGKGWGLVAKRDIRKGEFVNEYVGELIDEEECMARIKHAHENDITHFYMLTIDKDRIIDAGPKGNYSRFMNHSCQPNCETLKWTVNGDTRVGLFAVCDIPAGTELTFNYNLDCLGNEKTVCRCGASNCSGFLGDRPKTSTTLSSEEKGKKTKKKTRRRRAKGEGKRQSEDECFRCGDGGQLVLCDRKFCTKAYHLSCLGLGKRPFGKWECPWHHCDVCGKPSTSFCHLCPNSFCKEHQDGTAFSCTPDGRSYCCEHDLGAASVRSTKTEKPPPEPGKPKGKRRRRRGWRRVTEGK
It is filed as biochemical.

Where a name gives a salt, the structure may show the parent alone. Calls of active or inactive are those of the source.

Regarding `O=C(CN1C(=O)c2ccccc2S1(=O)=O)c1ccccc1Cl`, the results for the IC50 in [1] and in assay [13] were 4.2 µM (active) and > 80 µM (inactive), respectively. The EC50 is 0.104 µM (active) in assay [2], 0.364 µM (active) in [10] and 0.283 µM (active) in [11]. For the same compound, the AC50 in [3] was 1.52 µM (active); in assay [4], 4.22 µM (active); at Paired box protein Pax-8, 7.18 µM (active); in [5] it was 0.665 µM (active); in assay [6], 12.5 µM (active); in [7], 7.1 µM (active). Moreover, the AC50 is 2.17 µM (active) in assay [8], 9.61 µM (active) in assay [9], 0.805 µM (active) in assay [12] and > 100 µM (inactive) in assay [14].
For the compound `CC(=O)CSc1nnc(-c2ccc3c(c2)OCO3)o1`, the IC50 in assay [1] was 9.39 µM (active).
For `COc1cc(NC(=O)NCCN2CCN(c3ccc(Cl)cc3)CC2)ccc1C`, the CC50 in [15] was > 40 µM (active). Also, the EC50 in [2] was > 120 µM (not active); in [10], > 120 µM (not active); in assay [11] it was 20.5 µM (active).
Take `CC(C)(C)c1ccc(-c2nnc(SCCC#N)n2C2CCCC2)cc1`: the CC50 in [15] was > 40 µM (active).
As to `CC(C)NC(=O)C1CCCN(S(=O)(=O)c2cccs2)C1` (stereo not given), the IC50 in [16] was > 100 µM (active).
For the compound `CC=CC1=C(C(=O)O)N2C(=O)[C@@H](NC(=O)[C@H](N)c3ccc(O)cc3)[C@H]2SC1`, the IC50 in assay [17], in assay [18], in assay [19], in assay [20], in assay [21] and in [22] was > 20 µM (inactive) in each case. In addition, the IC50 in [23] was > 20 µM (inactive).
Consider `CN1CC[C@H](c2c(O)cc(O)c3c(=O)cc(-c4ccccc4Cl)oc23)[C@H](O)C1` [ALVOCIDIB HYDROCHLORIDE], for which the IC50 in [24] and in assay [25] was > 10 µM (inactive) in each case.
For `CC[n+]1c(-c2ccccc2)c2cc(N)ccc2c2ccc(N)cc21` [HOMIDIUM BROMIDE], the IC50 in [24] is > 10 µM (inactive); in assay [17], > 20 µM (inactive); in assay [18], 4.44 µM (active); in assay [26] it was > 66 µM (inactive); in assay [19], > 20 µM (inactive); in assay [20] it was > 20 µM (inactive). Further, the IC50 in [29] is 40.4 µM (inactive); in [21], > 20 µM (inactive); in assay [25], > 10 µM (inactive); in assay [22] it was 3.35 µM (active); in assay [23], > 20 µM (inactive). Moreover, the AC50 is 27.4 µM (active) in assay [27], 2.42 µM (active) in [28] and 0.293 µM (active) in [30].

These data come from ChEMBL document CHEMBL1201862, “PubChem BioAssay data set” (2004).
